Assay results: patent US11976083B2, “Inhibitors of peptidylarginine deiminases” (Gilead Sciences, Inc., priority 2020, dated 2024)

Target: T1, human PAD4 (Homo sapiens, UniProt Q9UM07)
T1 construct: human PAD4 (NM_012387), A2-P663, was PCR amplified; His-SUMO (N, cleaved yes); made in house; host or cells: E. coli BL21(DE3)
Assay: In vitro PAD4 BAEE biochemical assay
Details: BAEE substrate 3 mM, 5 nM PAD4, 2 mM calcium chloride; geometric mean of multiple experiments
Procedure, shortened: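 Recombinant PAD4 (5 nM final) with 2 mM CaCl2 was preincubated with compound for 30 min at 25 °C in MOPS pH 7.6 buffer with DTT, then reacted with 3 mM BAEE for 2 h at 25 °C. Released ammonia was detected fluorimetrically with o-phthalaldehyde/DTT; IC50 from four-parameter fit, geometric mean of experiments.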

T1 sequence (Q9UM07 2-663): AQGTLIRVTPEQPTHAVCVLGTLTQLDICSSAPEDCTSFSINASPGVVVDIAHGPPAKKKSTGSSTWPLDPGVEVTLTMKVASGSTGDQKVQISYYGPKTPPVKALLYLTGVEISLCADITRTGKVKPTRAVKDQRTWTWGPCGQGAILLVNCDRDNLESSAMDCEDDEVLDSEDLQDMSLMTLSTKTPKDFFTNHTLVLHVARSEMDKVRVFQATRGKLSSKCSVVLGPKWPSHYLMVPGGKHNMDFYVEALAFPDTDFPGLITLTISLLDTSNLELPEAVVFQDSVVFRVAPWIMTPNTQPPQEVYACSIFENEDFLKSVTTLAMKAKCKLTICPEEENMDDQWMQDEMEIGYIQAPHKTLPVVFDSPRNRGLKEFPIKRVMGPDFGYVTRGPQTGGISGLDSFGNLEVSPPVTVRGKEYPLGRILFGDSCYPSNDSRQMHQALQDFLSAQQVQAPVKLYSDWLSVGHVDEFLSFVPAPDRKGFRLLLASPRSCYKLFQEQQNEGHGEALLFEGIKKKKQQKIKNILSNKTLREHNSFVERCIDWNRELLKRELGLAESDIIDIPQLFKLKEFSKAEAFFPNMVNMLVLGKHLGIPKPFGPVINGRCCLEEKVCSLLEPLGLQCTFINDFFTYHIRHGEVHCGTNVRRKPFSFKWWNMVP

Row | Molecule | IC50 [µM]
1 | C[C@H]1NC(=O)[C@H]2[C@H](CCCCCn3c(-c4nc5cc(C(=O)N[C@H]6CNCC[C@@H]6F)c(F)cc5n4C)cc4ccc1nc43)C2(F)F [Example 383, 2-[(2˜{R},5˜{R},7˜{S})-6,6-difluoro-2-methyl-4-oxo-3,13,19-triazatetracyclo[11.5.2.0^{5,7}.0^{16,20}]icosa-1(19),14,16(20),17-tetraen-14-yl]-6-fluoro-˜{N}-[(3˜{S},4˜{S})-4-fluoro-3-piperidyl]-1-methyl-benzimidazole-5-carboxamide] | 0.028
2 | COc1cc(C(=O)N[C@H]2CNCC[C@H]2OC)cc2nc(-c3cc4ccc5nc4n3CCCCCCC(C)(C)C(=O)N[C@@H]5C)n(C)c12 [Example 82, 7-methoxy-~{N}-[(3~{S},4~{R})-4-methoxy-3-piperidyl]-1-methyl-2-[(11~{R})-8,8,11-trimethyl-9-oxo-1,10,19-triazatricyclo[10.5.2.0^{15,18}]nonadeca-12(19),13,15(18),16-tetraen-17-yl]benzimidazole-5-carboxamide] | 8.11
3 | C[C@H]1NC(=O)[C@@H]2C[C@H]2CCCCCn2c(-c3nc4cc(C(=O)N5[C@H]6CC[C@@H]5[C@H](N)C6)cnc4n3C)cc3ccc1nc32 [Example 563, (2~{R},5~{R},7~{R})-14-[6-[(1~{R},2~{R},4~ {S})-2-amino-7-azabicyclo [2.2.1]heptane-7-carbonyl]-3-methyl-imidazo[4,5-b]pyridin-2-yl]-2-methyl-3,13,19-triazatetracyclo [11.5.2.0^{5,7}.0^{16,20}] icosa-1(19),14,16(20), 17-tetraen-4-one] | 0.026
4 | COc1cc(C(=O)N2[C@H]3CC[C@@H]2[C@H](N)C3)cc2nc(-c3cc4ccc5nc4n3CCCCCCC(=O)N[C@@H]5C)n(C3CC3)c12 [Example 254, (10~{R})-16-[5-[(1~{R},2~{R},4~{S})-2-amino-7-azabicyclo[2.2.1]heptane-7-carbonyl]-1-cyclopropyl-7-methoxy-benzimidazol-2-yl]-10-methyl-1,9,18-triazatricyclo[9.5.2.0^{14,17}]octadeca-11(18),12,14(17),15-tetraen-8-one] | 0.032
5 | (2~{R})-17-[5-[(1~{S},4~{R}, 5~{R})-4-amino-2-azabicyclo [3.2.1]octane-2-carbonyl]- 7-(difluoromethoxy)-1-methyl- benzimidazol-2-yl]-8-chloro- 2-methyl-3,9,16,22- tetrazatetracyclo[14.5.2.0^ {5,10).0^{19,23}]tricosa- 1(22),5(10),6,8,17,19(23),20- heptaen-4-one [Example 762] | 0.026
6 | COc1cc(C(=O)N[C@H]2CNC[C@H]3C[C@H]32)cc2nc(-c3cc4ccc5nc4n3CCCCCCC(C)(C)C(=O)N[C@@H]5C)n(C)c12 [Example 203, ~{N}-[(1~{S},5~{R},6~{R})-3-azabicyclo[4.1.0]heptan-5-yl]-7-methoxy-1-methyl-2-[(11~{R})-8,8,11-trimethyl-9-oxo-1,10,19-triazatricyclo[10.5.2.0^{15,18}]nonadeca-12(19),13,15(18),16-tetraen-17-yl]benzimidazole-5-carboxamide] | 0.114
7 | C[C@H]1NC(=O)[C@@H]2C[C@H]2CCCCCn2c(-c3nc4cc(C(=O)N[C@H]5CNCC[C@@H]5F)c(F)cc4n3C)cc3ccc1cc32 [Example 564, 6-fluoro-~{N}-[(3~{S},4~ {S})-4-fluoro-3-piperidyl]-1-methyl-2-[(2~{R},5~ {R},7~{R})-2-methyl-4-oxo-3,13-diazatetracyclo [11.5.2.0^{5,7}.0^{16,20}]icosa-1(19),14,16(20), 17-tetraen-14-yl] benzimidazole-5-carboxamide] | 0.024
8 | COc1cc(C(=O)N2CCC[C@@H](N)C2)cc2nc(-c3cc4ccc5nc4n3CCCCCCc3cn(nn3)C5C)n(C)c12 (stereo partly drawn) [Example 25, [(3˜{R})-3-amino-1-piperidyl]-[7-methoxy-1-methyl-2-(2-methyl-3,4,5,13,19-pentazatetracyclo[11.5.2.1^{3,6}.0^{16,20}]henicosa-1(19),4,6(21),14,16(20),17-hexaen-14-yl)benzimidazol-5-yl]methanone] | 0.775
9 | COc1cc(C(=O)N2[C@H]3CC[C@@H]2[C@H](N)C3)cc2nc(-c3cc4ccc5nc4n3CCCCCCN(C)C(=O)N[C@@H]5C)c(C)n12 [Example 212, (11~{R})-17-[7-[(1~{R},2~{R},4~{S})-2-amino-7-azabicyclo[2.2.1]heptane-7-carbonyl]-5-methoxy-3-methyl-imidazo[1,2-a]pyridin-2-yl]-8,11-dimethyl-1,8,10,19-tetrazatricyclo[10.5.2.0^{15,18}]nonadeca-12(19),13,15(18),16-tetraen-9-one] | 0.022
10 | CC(C)n1c(-c2cc3ccc4nc3n2CCCCCCC(C)(C)C(=O)N[C@@H]4C)nc2cc(C(=O)N[C@H]3CNCC[C@@H]3F)c(F)cc21 [Example 421, 6-fluoro-~{N}-[(3~{S),4~{S})-4-fluoro-3-piperidyl]-1-isopropyl-2-[(11~{R})-8,8,11-trimethyl-9-oxo-1,10,19-triazatricyclo[10.5.2.0^{15,18}]nonadeca-12(19),13,15(18),16-tetraen-17-yl]benzimidazole-5-carboxamide] | 0.304
11 | COc1cc(C(=O)N[C@H]2CNCC[C@@H]2F)cc2nc(-c3cc4ccc5nc4n3CCCCCc3ccccc3C(=O)N[C@@H]5C)n(C)c12 [Example 31, ~{N}-[(3~{S},4~{S})-4-fluoro-3-piperidyl]-7-methoxy-1-methyl-2-[(2~{R})-2-methyl-4-oxo-3,16,22-triazatetracyclo[14.5.2.0^{5,10}.0^{19,23}]tricosa-1(22),5,7,9,17,19(23),20-heptaen-17-yl]benzimidazole-5-carboxamide] | 0.081
12 | C[C@H]1NC(=O)[C@@H]2C[C@H]2CCCC(F)(F)Cn2c(-c3nc4cc(C(=O)N[C@H]5CNCC[C@@H]5F)c(F)c(F)c4n3C3CC3)cc3ccc1nc32 [Example 189, 1-cyclopropyl-2-[(2~{R},5~{R},7~{R})-11,11-difluoro-2-methyl-4-oxo-3,13,19-triazatetracyclo[11.5.2.0^{5,7}.0^{16,20}]icosa-1(19),14,16(20),17-tetraen-14-yl]-6,7-difluoro-~{N}-[(3~{S},4~{S})-4-fluoro-3-piperidyl]benzimidazole-5-carboxamide] | 0.033

Next, values leading:

Row | IC50 [µM] | Molecule
13 | 0.025 | COc1cc(C(=O)N2C[C@H]3CC[C@@H]2[C@@H]3N)cc2nc(-c3cc4ccc5nc4n3CCCCCc3cncc(F)c3C(=O)N[C@@H]5C)n(C)c12 [Example 658, (2~{R})-17-[5-[(1~{R},4~ {R},7~{R})-7-amino-2-azabicyclo[2.2.1]heptane-2-carbonyl]-7-methoxy-1-methyl-benzimidazol-2-yl]-6-fluoro-2-methyl-3,8,16,22-tetrazatetracyclo[14.5.2.0^ {5,10).0^{19,23}] tricosa-1(22),5,7,9,17,19(23), 20-heptaen-4-one]
14 | 0.04 | COc1cc(C(=O)N2C[C@H](N)[C@@H]3CC[C@H]2C3)cc2nc(-c3cc4ccc5nc4n3CCCCCc3ccc(F)c(F)c3C(=O)N[C@@H]5C)n(C)c12 [Example 897, (2~{R})-17-[5-[(1~{S),4~{R}, 5~{R})-4-amino-2-azabicyclo [3.2.1]octane-2-carbonyl]-7-methoxy-1-methyl-benzimidazol-2-yl]-6,7-difluoro-2-methyl-3,16,22-triazatetracyclo [14.5.2.0^{5,10}.0^{19,23}] tricosa-1(22),5(10),6,8,17, 19(23),20-heptaen-4-one]
15 | 0.027 | CO[C@H]1C[C@@H]1n1c(-c2cc3ccc4nc3n2CC(F)(F)CCC[C@@H]2C[C@H]2C(=O)N[C@@H]4C)nc2cc(C(=O)N3C[C@H]4CC[C@@H]3[C@@H]4N)cc(F)c21 [Example 804, (2~{R},5~{R},7~{R})-14-[5-[(1~{R},4~{R},7~{R})-7-amino-2-azabicyclo[2.2.1]heptane-2-carbonyl]-7-fluoro-1-[(1~{S},2~{S})-2-methoxycyclopropyl]benzimidazol-2-yl]-11,11-difluoro-2-methyl-3,13,19-triazatetracyclo[11.5.2.0^ {5,7}.0^{16,20}]icosa-1(18),14,16,19-tetraen-4-one]
16 | 0.157 | COc1cc(C(=O)N2CC[C@@H](OC(F)F)[C@@H](N)C2)cc2nc(-c3cc4ccc5nc4n3CCCCCc3nccnc3C(=O)N[C@@H]5C)n(C3CC3)c12 [Example 612, (2~{R})-17-[5-[(3~{S),4~{R})-3-amino-4-(difluoromethoxy)piperidine-1-carbonyl]-1-cyclopropyl-7-methoxy-benzimidazol-2-yl]-2-methyl-3,6,9,16,22-pentazatetracyclo [14.5.2.0^{5,10}.0^{19, 23}]tricosa-1(21),5(10), 6,8,17,19,22-heptaen-4-one]
17 | 0.024 | COc1cc(C(=O)N2CC[C@@H](OC)[C@@H](N)C2)cc2nc(-c3cc4ccc5nc4n3CCCCCC[C@](F)(c3ccccn3)C(=O)N[C@@H]5C)n(C)c12 [Example 869, (8~{S},11~{R})-17-[5-[(3~ {S},4~{R})-3-amino-4-methoxy-piperidine-1-carbonyl]-7-methoxy-1-methyl-benzimidazol-2-yl]-8-fluoro-11-methyl-8-(2-pyridyl)-1,10,19-triazatricyclo[10.5.2.0^ {15,18}]nonadeca-12(19), 13,15(18),16-tetraen-9-one]
18 | 0.012 | COc1cc(C(=O)N2CCC[C@@H](N)[C@H]2C)cc2nc(-c3cc4ccc5nc4n3CCCCCCC3(COC3)C(=O)N[C@@H]5C)n(C)c12 [Example 799, (11~{R})-17-[5-[(2~{R},3~{R})-3-amino-2-methyl-piperidine-1-carbonyl]-7-methoxy-1-methyl-benzimidazol-2-yl]-11-methyl-spiro[1,10,19-triazatricyclo[10.5.2.0^ {15,18}]nonadeca-12,14,16,18-tetraene-8,3′-oxetane]-9-one]
